Source: patent US20140314780A1, “Compositions Using Antibodies Directed to GPNMB and Uses Thereof” (Celldex Therapeutics, Inc., priority 2008, published 2014)

Tests used:
phospho-ERK (pp-ERK) = assay: Immunoblotting for phospho-ERK (level of ERK activation); assay type: cell-based, human
Text: In the experiment presented in FIG. 2A, potential inhibition of the ERK pathway was investigated by immunoblotting for phospho-ERK (pp-ERK), which represents the active form of this signaling molecule.

[1] = test system: GPNMB surface expression on A375 melanoma cells; assay: Flow cytometry of GPNMB surface expression, A375 cells; assay type: cell-based, human; conditions: for GPNMB surface expression, flow cytometry GeoMean: A375, CR011 (anti-GPNMB) primary antibody
Description: Cells were seeded in 6-well tissue culture dishes at a subconfluent density and allowed to attach overnight. The following day, cells were treated as indicated in the figures/legends, harvested with versene (Invitrogen), washed with PBS and incubated with primary antibody (10 μg/mL) diluted in staining buffer (PBS pH 7.4, 4% FBS, 0.1% sodium azide) for 30 minutes on ice. […] After incubation with primary antibody, samples were washed with staining buffer and then incubated with secondary antibody (PE-conjugated anti-human antibody; 1:100) for 30 minutes on ice. After incubation, samples were washed with staining buffer and examined on a Becton Dickinson FACSCalibur flow cytometer (BD Immunocytometry Systems, San Jose, Calif.). Data analysis was performed with Becton Dickinson Cell Quest software and the geometric mean fluorescence intensity (GeoMean) was determined for each sample.
For the data shown in Table 37, flow cytometry was performed on intact, non-permeabilized cells using the indicated primary monoclonal antibodies. […] The results are reported as GeoMeans. […] For the data shown in the bottom left panel of Table 37, SKMEL2 (melanoma) cells were treated with MEKi (U0126; 10 uM), imatinib (20 uM), p38i (p38 MAPKi SB202190; 50 uM), NH4Cl (ammonium chloride; 20 mM) or CLQ (chloroquine; 20 uM) for 48 hours prior to analysis. For the data shown in the bottom right panel of Table 37, WM2664 (melanoma) cells were treated with MON (monensin) or MMPi (GM6001) for 48 hours prior to analysis.

SMILES: N#CC(=C(/N)Sc1ccccc1N)/C(C#N)=C(\N)Sc1ccccc1N [Mab U0126]
- inhibition of the ERK pathway (phospho-ERK levels) (phospho-ERK (pp-ERK); A375 and SKMEL2 cell lines (FIG. 3B)): robust and sustained inhibition
- inhibition of the ERK pathway (phospho-ERK levels) (phospho-ERK (pp-ERK); SF539 cells (FIG. 3B)): transient inhibition
- GPNMB surface expression, flow cytometry GeoMean ([1]; MEKi (U0126) 5 um, 12 h): 14.7
- GPNMB surface expression, flow cytometry GeoMean ([1]; MEKi (U0126) 5 um, 24 h): 16.4
- GPNMB surface expression, flow cytometry GeoMean ([1]; MEKi (U0126) 5 um, 48 h): 52.4
- GPNMB surface expression, flow cytometry GeoMean ([1]; MEKi (U0126) 20 um, 12 h): 18.3
- GPNMB surface expression, flow cytometry GeoMean ([1]; MEKi (U0126) 20 um, 24 h): 22.4
- GPNMB surface expression, flow cytometry GeoMean ([1]; MEKi (U0126) 20 um, 48 h): 84.0
- GPNMB surface expression ([1]; A375 melanoma, 12, 24 or 48 hours (Table 37, top)): induced GPNMB surface expression
